Data reported in ChEMBL document CHEMBL4622874, “Discovery of ORN0829, a potent dual orexin 1/2 receptor antagonist for the treatment of insomnia” (Bioorg Med Chem, 2020).
The source made the active and inactive calls. No cut-off for these calls is given here.

Tests used:
[1] = Half-life in human plasma at 40 mg,po administered once daily; format: ADME, cell-free
[2] = target: T1, Orexin/Hypocretin receptor type 1 (Homo sapiens, UniProt O43613); test: Antagonist activity at human recombinant OX1R expressed in CHOK1 cells assessed as inhibition of orexin A-induced intracellular Ca2+ release preincubated for 30 mins followed by orexin-A stimulation by Fluo4-AM dye based fluorescence analysis; format: functional, cell-based, CHO-K1
T1 sequence (O43613 whole entry): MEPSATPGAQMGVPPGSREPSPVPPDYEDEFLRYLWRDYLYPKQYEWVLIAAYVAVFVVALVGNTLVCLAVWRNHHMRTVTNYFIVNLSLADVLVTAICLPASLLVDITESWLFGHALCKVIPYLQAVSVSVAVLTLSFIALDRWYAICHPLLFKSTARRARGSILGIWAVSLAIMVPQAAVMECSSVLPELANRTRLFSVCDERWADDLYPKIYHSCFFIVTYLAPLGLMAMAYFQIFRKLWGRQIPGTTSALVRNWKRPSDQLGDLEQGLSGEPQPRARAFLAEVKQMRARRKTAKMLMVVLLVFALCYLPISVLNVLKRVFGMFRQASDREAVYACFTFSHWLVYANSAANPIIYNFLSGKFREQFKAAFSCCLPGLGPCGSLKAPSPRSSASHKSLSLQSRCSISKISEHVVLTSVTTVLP

[3] = Drug metabolism in human liver microsomes incubated for 15 mins; format: ADME, Microsome; details: read-out: Drug metabolism
[4] = Lipophilicity, log D of the compound at pH 7.4 by HPLC analysis; format: physicochemical; details: buffer
[5] = target: Cytochrome P450 3A4 (Homo sapiens, UniProt P08684); test: Time dependent inhibition of CYP3A4 (unknown origin); format: ADME
[6] = target: Voltage-gated inwardly rectifying potassium channel KCNH2 (Homo sapiens, UniProt Q12809); test: Inhibition of human ERG
[7] = Half-life in human; format: ADME
[8] = target: T2, Orexin receptor type 2 (Homo sapiens, UniProt O43614); test: Antagonist activity at human recombinant OX2R expressed in CHOK1 cells assessed as inhibition of orexin A-induced intracellular Ca2+ release preincubated for 30 mins followed by orexin-A stimulation by Fluo-4AM dye based fluorescence analysis; format: functional, cell-based, CHO-K1
T2 sequence (O43614 whole entry): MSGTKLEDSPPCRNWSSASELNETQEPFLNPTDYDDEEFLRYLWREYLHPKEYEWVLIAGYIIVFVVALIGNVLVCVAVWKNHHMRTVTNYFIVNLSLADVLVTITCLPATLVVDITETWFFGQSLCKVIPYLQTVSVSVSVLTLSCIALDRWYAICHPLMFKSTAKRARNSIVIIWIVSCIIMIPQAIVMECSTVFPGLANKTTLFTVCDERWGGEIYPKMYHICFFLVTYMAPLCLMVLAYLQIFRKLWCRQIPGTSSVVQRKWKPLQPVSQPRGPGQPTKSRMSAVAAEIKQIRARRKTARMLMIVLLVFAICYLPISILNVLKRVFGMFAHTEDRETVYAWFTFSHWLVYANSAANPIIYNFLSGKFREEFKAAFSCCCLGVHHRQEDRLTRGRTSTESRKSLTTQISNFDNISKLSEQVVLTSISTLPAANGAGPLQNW

[9] = target: P-gp (ABCB1) (Homo sapiens, UniProt P08183); test: Substrate activity at P-gp (unknown origin) assessed as efflux ratio; format: ADME; details: not told
[10] = Volume of distribution in Sprague-Dawley rat at 1 mg/kg or 2 mg/kg, iv; format: ADME, organism-based; details: in vivo
[11] = Volume of distribution in dog at 0.5 mg/kg, iv; format: ADME, organism-based, Canis lupus familiaris; details: in vivo
[12] = Clearance in Sprague-Dawley rat at 1 mg/kg or 2 mg/kg, iv; format: ADME, organism-based; details: in vivo
[13] = Clearance in dog at 0.5 mg/kg, iv; format: ADME, organism-based, Canis lupus familiaris; details: in vivo
[14] = Half-life in Sprague-Dawley rat at 1 mg/kg or 2 mg/kg, iv; format: ADME, organism-based; details: in vivo
[15] = Half-life in dog at 0.5 mg/kg, iv; format: ADME, organism-based, Canis lupus familiaris; details: in vivo
[16] = Tmax in Sprague-Dawley rat at 3 mg/kg, po; format: ADME, organism-based; details: in vivo
[17] = Tmax in dog at 3 mg/kg, po; format: ADME, organism-based, Canis lupus familiaris; details: in vivo
[18] = Ratio of drug level in brain to plasma in Sprague-Dawley rat at 3 mg/kg, po; format: ADME, organism-based
[19] = Ratio of drug level in cerebrospinal fluid to plasma in Sprague-Dawley rat at 3 mg/kg, po; format: ADME, organism-based; details: csf
[20] = Oral bioavailability in Sprague-Dawley rat at 3 mg/kg; format: ADME, organism-based; details: in vivo
[21] = Oral bioavailability in dog at 3 mg/kg; format: ADME, organism-based, Canis lupus familiaris; details: in vivo
[22] = Plasma protein binding in Sprague-Dawley rat at 2 ug/mL; format: ADME, cell-free; details: read-out: PPB (converted)
[23] = Plasma protein binding in dog at 2 ug/mL; format: ADME, cell-free, Canis lupus familiaris; details: read-out: PPB (converted)
[24] = system: Rattus norvegicus; test: Sleep-promoting activity in Wistar rat assessed as fast sleep onset latency at 1 to10 mg/kg, po administered 10 mins prior to the onset of dark period measured every 20s for 2 hrs by polysomnography; format: functional, organism-based
[25] = system: Rattus norvegicus; test: Sleep-promoting activity in po dosed Wistar rat assessed as increase in total sleep administered 10 mins prior to the onset of dark period measured every 20s for 2 hrs by polysomnography; format: functional, organism-based
[26] = target: T3, Orexin/Hypocretin receptor type 1 (Rattus norvegicus) (UniProt P56718); test: Antagonist activity at rat recombinant OX1R expressed in CHOK1 cells assessed as inhibition of orexin A-induced intracellular Ca2+ release preincubated for 30 mins followed by orexin-A stimulation by Fluo4-AM dye based fluorescence analysis; format: functional, cell-based; details: CHO-K1
T3 sequence (whole entry): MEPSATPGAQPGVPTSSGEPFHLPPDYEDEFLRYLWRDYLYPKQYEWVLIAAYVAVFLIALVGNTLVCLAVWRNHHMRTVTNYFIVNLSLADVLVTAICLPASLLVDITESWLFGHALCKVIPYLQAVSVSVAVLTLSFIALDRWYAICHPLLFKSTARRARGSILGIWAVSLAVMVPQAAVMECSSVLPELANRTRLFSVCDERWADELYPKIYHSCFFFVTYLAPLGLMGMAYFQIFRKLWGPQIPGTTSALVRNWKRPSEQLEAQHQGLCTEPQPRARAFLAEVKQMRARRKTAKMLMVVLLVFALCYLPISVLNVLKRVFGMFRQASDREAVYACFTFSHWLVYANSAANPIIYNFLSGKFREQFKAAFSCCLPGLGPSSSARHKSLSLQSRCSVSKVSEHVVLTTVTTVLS

[27] = target: T4, Orexin receptor type 2 (Rattus norvegicus) (UniProt P56719); test: Antagonist activity at rat recombinant OX2R expressed in CHOK1 cells assessed as inhibition of orexin A-induced intracellular Ca2+ release preincubated for 30 mins followed by orexin-A stimulation by Fluo4-AM dye based fluorescence analysis; format: functional, cell-based; details: CHO-K1
T4 sequence (whole entry): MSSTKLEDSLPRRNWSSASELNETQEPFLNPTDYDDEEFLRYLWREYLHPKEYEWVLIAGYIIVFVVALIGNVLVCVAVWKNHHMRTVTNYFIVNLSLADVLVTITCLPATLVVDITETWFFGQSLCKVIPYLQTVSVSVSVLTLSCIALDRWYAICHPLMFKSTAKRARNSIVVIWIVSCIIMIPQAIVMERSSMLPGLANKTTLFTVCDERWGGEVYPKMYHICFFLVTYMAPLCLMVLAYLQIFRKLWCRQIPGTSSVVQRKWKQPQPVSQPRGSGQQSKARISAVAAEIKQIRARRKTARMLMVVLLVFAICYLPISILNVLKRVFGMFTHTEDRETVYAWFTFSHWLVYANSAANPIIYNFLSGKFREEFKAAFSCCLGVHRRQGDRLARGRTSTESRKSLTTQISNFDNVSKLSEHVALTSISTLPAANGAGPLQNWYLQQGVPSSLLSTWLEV

[28] = Chemical stability of the compound in JP 1st fluid at pH 1.2 at 37 degC incubated for 24 hrs; format: physicochemical; details: buffer, pH 1.2, 24 h
[29] = Drug metabolism in dog liver microsomes incubated for 15 mins; format: ADME, Canis lupus familiaris, Microsome; details: read-out: Drug metabolism
[30] = Drug metabolism in rat liver microsomes incubated for 15 mins; format: ADME, Microsome; details: read-out: Drug metabolism
[31] = Drug uptake in cerebrospinal fluid in Sprague-Dawley rat at 3 mg/kg, po measured after 1 hr; format: ADME, organism-based; details: read-out: Drug uptake
[32] = system: Rattus norvegicus; test: Sleep-promoting activity in po dosed Wistar rat administered 10 mins prior to the onset of dark period measured every 20s for 2 hrs by polysomnography; format: functional; details: read-out: MED
[33] = Half-life in human at 10 to 80 mg, po administered as single dose; format: ADME, organism-based; details: in vivo
[34] = Half-life in Sprague-Dawley rat at 2 mg/kg, iv; format: ADME, organism-based; details: in vivo
[35] = system: Rattus norvegicus; test: Sleep-promoting activity in ip dosed Wistar rat by polysomnography; format: functional; details: read-out: MED

Chain of P-gp (ABCB1) (P08183 whole entry): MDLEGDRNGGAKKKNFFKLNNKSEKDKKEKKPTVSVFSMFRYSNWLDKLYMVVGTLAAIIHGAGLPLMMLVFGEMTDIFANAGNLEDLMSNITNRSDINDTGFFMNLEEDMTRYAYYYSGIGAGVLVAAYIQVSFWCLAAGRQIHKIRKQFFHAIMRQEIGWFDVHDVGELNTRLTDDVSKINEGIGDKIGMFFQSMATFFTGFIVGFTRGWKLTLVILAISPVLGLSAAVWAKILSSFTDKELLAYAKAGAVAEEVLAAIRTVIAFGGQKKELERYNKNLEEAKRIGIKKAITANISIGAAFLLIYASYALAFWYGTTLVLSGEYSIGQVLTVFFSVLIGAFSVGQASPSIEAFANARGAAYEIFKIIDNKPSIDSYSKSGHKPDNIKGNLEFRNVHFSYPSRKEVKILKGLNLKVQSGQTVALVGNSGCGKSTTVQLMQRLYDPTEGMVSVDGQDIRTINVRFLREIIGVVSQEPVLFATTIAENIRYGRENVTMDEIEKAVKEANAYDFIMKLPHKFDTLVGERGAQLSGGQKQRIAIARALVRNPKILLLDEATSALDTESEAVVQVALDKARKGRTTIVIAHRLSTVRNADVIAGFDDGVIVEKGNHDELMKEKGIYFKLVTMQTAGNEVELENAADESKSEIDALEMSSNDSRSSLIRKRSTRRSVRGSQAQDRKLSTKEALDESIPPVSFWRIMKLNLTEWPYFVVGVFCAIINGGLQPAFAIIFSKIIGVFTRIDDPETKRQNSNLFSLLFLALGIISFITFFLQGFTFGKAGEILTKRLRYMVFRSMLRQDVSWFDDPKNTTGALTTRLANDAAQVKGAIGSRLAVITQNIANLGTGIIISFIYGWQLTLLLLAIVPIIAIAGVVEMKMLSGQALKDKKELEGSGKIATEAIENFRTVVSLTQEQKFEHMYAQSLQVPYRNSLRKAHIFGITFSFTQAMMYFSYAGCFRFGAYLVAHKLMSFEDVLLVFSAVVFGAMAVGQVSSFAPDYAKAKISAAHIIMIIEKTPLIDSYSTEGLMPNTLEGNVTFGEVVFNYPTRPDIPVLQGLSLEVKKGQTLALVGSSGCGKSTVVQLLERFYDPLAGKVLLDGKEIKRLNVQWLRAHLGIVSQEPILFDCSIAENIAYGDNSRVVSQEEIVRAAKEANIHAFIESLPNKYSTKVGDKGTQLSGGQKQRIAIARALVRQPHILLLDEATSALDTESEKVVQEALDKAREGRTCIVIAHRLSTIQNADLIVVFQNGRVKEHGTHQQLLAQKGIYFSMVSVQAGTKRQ
Chain of Cytochrome P450 3A4 (P08684 whole entry): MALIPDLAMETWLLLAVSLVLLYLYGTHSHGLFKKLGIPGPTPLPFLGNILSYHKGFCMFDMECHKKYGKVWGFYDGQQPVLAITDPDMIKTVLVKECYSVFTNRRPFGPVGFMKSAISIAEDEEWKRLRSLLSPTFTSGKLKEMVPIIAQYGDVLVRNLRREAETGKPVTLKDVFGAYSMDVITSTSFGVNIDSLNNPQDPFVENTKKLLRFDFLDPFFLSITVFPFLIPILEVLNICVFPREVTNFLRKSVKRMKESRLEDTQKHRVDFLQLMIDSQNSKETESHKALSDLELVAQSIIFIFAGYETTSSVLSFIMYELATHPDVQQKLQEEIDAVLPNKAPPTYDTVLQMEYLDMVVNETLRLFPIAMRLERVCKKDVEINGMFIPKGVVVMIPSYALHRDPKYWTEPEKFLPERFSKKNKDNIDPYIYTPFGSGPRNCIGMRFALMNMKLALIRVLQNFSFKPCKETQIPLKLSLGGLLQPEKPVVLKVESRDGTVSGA
Chain of Voltage-gated inwardly rectifying potassium channel KCNH2 (Q12809 whole entry): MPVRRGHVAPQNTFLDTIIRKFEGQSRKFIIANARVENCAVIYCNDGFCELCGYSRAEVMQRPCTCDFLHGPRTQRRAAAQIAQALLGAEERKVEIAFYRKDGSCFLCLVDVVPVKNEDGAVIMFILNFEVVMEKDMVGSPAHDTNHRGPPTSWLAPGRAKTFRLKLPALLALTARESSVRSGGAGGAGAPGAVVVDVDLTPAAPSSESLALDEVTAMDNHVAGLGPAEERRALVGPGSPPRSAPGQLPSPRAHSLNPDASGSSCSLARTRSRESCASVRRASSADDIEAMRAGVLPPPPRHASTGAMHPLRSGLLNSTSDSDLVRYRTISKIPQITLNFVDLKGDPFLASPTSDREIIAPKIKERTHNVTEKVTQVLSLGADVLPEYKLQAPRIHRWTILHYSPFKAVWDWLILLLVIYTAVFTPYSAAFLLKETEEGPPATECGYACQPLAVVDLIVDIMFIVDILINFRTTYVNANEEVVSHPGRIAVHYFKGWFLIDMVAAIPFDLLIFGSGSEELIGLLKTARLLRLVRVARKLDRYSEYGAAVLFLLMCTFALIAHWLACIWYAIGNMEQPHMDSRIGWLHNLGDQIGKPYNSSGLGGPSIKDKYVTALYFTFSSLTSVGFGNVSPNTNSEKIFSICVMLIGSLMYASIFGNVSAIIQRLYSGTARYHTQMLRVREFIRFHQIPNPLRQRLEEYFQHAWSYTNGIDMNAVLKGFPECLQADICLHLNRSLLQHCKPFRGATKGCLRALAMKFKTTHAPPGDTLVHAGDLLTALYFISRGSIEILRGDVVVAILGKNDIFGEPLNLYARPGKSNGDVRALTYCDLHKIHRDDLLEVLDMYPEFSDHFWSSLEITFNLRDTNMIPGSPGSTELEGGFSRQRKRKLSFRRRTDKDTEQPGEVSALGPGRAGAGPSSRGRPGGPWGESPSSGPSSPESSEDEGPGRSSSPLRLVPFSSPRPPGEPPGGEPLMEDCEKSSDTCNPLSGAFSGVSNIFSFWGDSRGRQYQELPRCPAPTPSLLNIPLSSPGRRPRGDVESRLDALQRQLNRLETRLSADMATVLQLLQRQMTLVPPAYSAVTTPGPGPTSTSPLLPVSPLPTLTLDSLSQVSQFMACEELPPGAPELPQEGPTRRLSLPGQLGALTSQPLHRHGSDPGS

In the case of Cc1ccc(-n2nccn2)c(C(=O)N2CCN(c3nc4cc(Cl)ccc4o3)CC[C@H]2C)c1 [SUVOREXANT], the half-life [1] is reported as 12 h.

Cc1ccc(-n2nccn2)c(C(=O)N2CCCO[C@H]2Cn2cc(-c3ccc(F)cc3)cn2)c1 gave an IC50 [2] of 2.21 nM, a metabolised at 0.25 h [3] of 24.8% and a logD [4] of 3.15. The “inhibition (INH)” value [5] was “Active” and the “inhibition (INH)” value [6] was “Active”.

With COc1ccc(-n2nccn2)c(C(=O)N2CCC[C@@]2(C)c2nc3c(C)c(Cl)ccc3[nH]2)c1 [DARIDOREXANT] the half-life [7] was 6 h.

With Cc1ccc(-n2nccn2)c(C(=O)N2CCCO[C@H]2Cn2ccc(-c3ccc(F)cn3)n2)c1 the IC50 [2] was 1.05 nM, the IC50 [8] was 1.27 nM and the metabolised at 0.25 h [3] was 34.4%. The efflux ratio [9] was 2.43, the logD [4] was 2.58 and the Vd [10] was 0.853 L/kg. The Vd [11] was 0.294 L/kg, the clearance [12] was 39.5 mL/min/kg and the clearance [13] was 2.65 mL/min/kg. It also gave a half-life [14] of 0.238 h, a half-life [15] of 1.16 h and a Tmax [16] of 0.333 h. It also gave a Tmax [17] of 0.583 h, a Ratio [18] of 13.5% and a Ratio [19] of 3.1%. The bioavailability [20] was 5.5%, the bioavailability [21] was 61.6% and the fraction unbound at 2 ug/mL [22] was 0.12. For the same compound, the fraction unbound at 2 ug/mL [23] was 0.036, the Activity [24] was “Active” and the Activity [25] was “Dose-dependent effect”. For the same compound, the Kb [26] was 0.44 nM, the Kb [27] was 0.8 nM and the Stability [28] was “Stable”. The metabolised at 0.25 h [29] was 10.5%, the metabolised at 0.25 h [30] was 51% and the concentration at 1 h [31] was 2.23 nM. It also gave a minimal effective dose [32] of 1 mg/kg.

Work on Cc1cc(C)nc(N2CC3CN(C(=O)c4c(F)cccc4-n4nccn4)CC3C2)n1 (configuration not stated) [SELTOREXANT] yielded a half-life [33] of 2 h.

With CCN(CCn1ccc(-c2ccc(F)cn2)n1)C(=O)c1ccccc1-n1nccn1 the IC50 [2] was 20.6 nM, the IC50 [8] was 38.7 nM and the logD [4] was 2.53. The half-life [15] was 1.07 h, the half-life [34] was 0.412 h and the minimal effective dose [35] was 3 mg/kg.

In the case of Cc1ccc(-c2ncccn2)c(C(=O)N2CCCO[C@H]2Cn2ccc(-c3ccc(F)cn3)n2)c1, the IC50 [2] is reported as 3.29 nM, the IC50 [8] is reported as 3.18 nM and the metabolised at 0.25 h [3] is reported as 26.3%. The efflux ratio [9] was 6.74 and the logD [4] was 2.36.

Work on Cc1ccc(-n2nccn2)c(C(=O)N2COCC[C@H]2Cn2ccc(-c3ccc(F)cn3)n2)c1 yielded an IC50 [2] of 3.36 nM, an IC50 [8] of 3.41 nM and a metabolised at 0.25 h [3] of 24.1%. It also gave an efflux ratio [9] of 3.08 and a logD [4] of 2.39.

Compound Cc1ccc(-n2nccn2)c(C(=O)N2CCCO[C@H]2Cn2ncc(-c3ccc(F)cn3)n2)c1 has an IC50 [2] of 2.9 nM, an IC50 [8] of 1.88 nM and a metabolised at 0.25 h [3] of 16.4%. It also gave an efflux ratio [9] of 1.38 and a logD [4] of 2.8.
